Assay results taken from PMC7954794, “Protein context shapes the specificity of SH3 domain-mediated interactions in vivo” (Nature Communications, 2021).

Test system: growth of yeast strains under 51 stress conditions
Assay: Growth assays in 51 stress conditions (Fig. 1E-F, S2D, S5B)
Assay type: cell-based, Saccharomyces cerevisiae
Parameters: key to Growth (Fig. S2D) / growth of ABP1 SH3-swapped strains in stress condition: log2 colony size, average of median per strain (growth score)
Conditions: ABP1 SH3-swapped strains
Description: All WT, SH3-deleted, KO (except for CDC25 which is the only essential SH3-containing gene in yeast), ABP1 SH3-swapped, and SLA1 SH3-shuffled strains were grown on omnitrays in 1536 formats and robotically manipulated with a pin tool (the DHFR F[1,2] bait strains were used except for the KO strains). Each strain was randomly positioned in 6 replicates per plate and two plates per condition were performed, for 12 replicates per strain in total. A border of two rows and two columns of WT strains (BY4741) around the plate was used to remove border effects. Strains were grown on YPD media for two days at 30 °C. They were then replicated on 51 different media that are described in the Supplementary Table 3 and were incubated at 37 °C in a spImager custom platform with images acquired every two hours for four days. The colony sizes from plate pictures were also measured with the R package “Gitter” and the output was manually inspected. Positions with an abnormality in colony circularity were removed. The colony sizes after 74 h of incubation at 37 °C were log2 transformed and used for the analyses. First, the differences between the two plate replicates were corrected to remove plate effects. The median colony size was calculated for each strain per plate. Strains with a difference in their median colony size of more than two between the two plate replicates were removed. Finally, the average of the median colony size was calculated for each strain per condition (growth score).

CDC25
Growth (Fig. S2D) (Bathophenanthroline.0.1uM): 10.8311
Growth (Fig. S2D) (Bathophenanthroline.10uM): 10.71
Growth (Fig. S2D) (Bathophenanthroline.1uM): 10.807
Growth (Fig. S2D) (CaCl2.100mM): 10.8749
Growth (Fig. S2D) (CaCl2.250mM): 10.774
Growth (Fig. S2D) (CaCl2.500mM): 10.2891
Growth (Fig. S2D) (Caffein.10mM): 10.1016
Growth (Fig. S2D) (Caffein.2mM): 11.0786
Growth (Fig. S2D) (CdCl2.100uM): 9.608
Growth (Fig. S2D) (CdCl2.10uM): 10.8752
Growth (Fig. S2D) (CdCl2.50uM): 9.913
Growth (Fig. S2D) (CuSO4.1mM): 10.4484
Growth (Fig. S2D) (CuSO4.5mM): 7.922
Growth (Fig. S2D) (Cycloheximide.0.05.uM): 11.0566
Growth (Fig. S2D) (Cycloheximide.0.2.uM): 10.636
Growth (Fig. S2D) (Cycloheximide.0.5.uM): 10.117
Growth (Fig. S2D) (DMSO.2.): 11.0377
Growth (Fig. S2D) (DMSO.6.): 9.934
Growth (Fig. S2D) (DMSO.8.): 9.291
Growth (Fig. S2D) (Ethanol.2.): 10.7941
Growth (Fig. S2D) (Ethanol.6.): 10.2979
Growth (Fig. S2D) (Ethanol.8.): 10.0965
Growth (Fig. S2D) (Galactose.2.): 10.7721
Growth (Fig. S2D) (Glycerol.2.): 9.727
Growth (Fig. S2D) (Hydroxyurea.25mM): 10.7845
Growth (Fig. S2D) (Hygromycin.190uM): 10.9998
Growth (Fig. S2D) (Hygromycin.19uM): 11.0292
Growth (Fig. S2D) (Hygromycin.95uM): 11.0306
Growth (Fig. S2D) (MMS.0.004.): 10.9713
Growth (Fig. S2D) (MMS.0.02.): 10.7211
Growth (Fig. S2D) (MMS.0.04.): 9.98
Growth (Fig. S2D) (Menadione.100uM): 10.5959
Growth (Fig. S2D) (Menadione.200uM): 10.4955
Growth (Fig. S2D) (Menadione.50uM): 10.8366
Growth (Fig. S2D) (NaCl.0.25M): 10.7898
Growth (Fig. S2D) (NaCl.1M): 9.773
Growth (Fig. S2D) (Nitroquinoline.10uM): 10.6639
Growth (Fig. S2D) (Nitroquinoline.50uM): 10.6019
Growth (Fig. S2D) (Nystatin.0.01uM): 11.0504
Growth (Fig. S2D) (Nystatin.0.1uM): 11.1
Growth (Fig. S2D) (Raffinose.2.): 11.0411
Growth (Fig. S2D) (Rapamycin.10nM): 9.922
Growth (Fig. S2D) (Rapamycin.50nM): 9.425
Growth (Fig. S2D) (SC.pH3): 10.4587
Growth (Fig. S2D) (SC.pH6): 11.0388
Growth (Fig. S2D) (SDS.0.01.): 11.0329
Growth (Fig. S2D) (SDS.0.02.): 11.0194
Growth (Fig. S2D) (SDS.0.05.): 10.8768
Growth (Fig. S2D) (Sorbitol.10mM): 11.0003
Growth (Fig. S2D) (Sorbitol.1mM): 11.0466
Growth (Fig. S2D) (Sorbitol.5mM): 10.9359
